Values of other authors as cited in patent US20060134216A1, “Enteric film coating composition containing enteric polymer micronized with detackifier” (priority 2004, published 2006).

Conditions: aqueous solution at pH values under 4.0

**Q.** With COc1ccc2[nH]c([S+]([O-])Cc3ncc(C)c(OC)c3C)nc2c1 (stereo not shown) [omeprazole] as the compound, how does the half-life read?
**A.** less than ten
